# Source: ChEMBL document CHEMBL1135319, “New N-alkyl-1,2-dihydro-2-thioxo-3-pyridinecarbothioamides as antituberculous agents with improved pharmacokinetics” (Bioorg Med Chem Lett, 2002)
# Columns and labels:
# [1] = Clearance rate after i.v. administration in rats; assay type: ADME, organism-based; settings: rat, in vivo, iv
# [2] = Volume of steady state distribution after i.v. administration in rats; assay type: ADME, organism-based; settings: rat, in vivo, iv; read-out: Vss
# [3] = Elimination half life after i.v. administration of compound in rats; assay type: ADME, organism-based; settings: rat, in vivo, iv
# [4] = Mean residence time (Pharmacokinetic property) after i.v. administration in rats; assay type: ADME, organism-based; settings: rat, in vivo, iv
# [5] = Area under the curve (Concentration) was determined for the compound as AUC with limits 0-8 after i.v. administration in rats; assay type: ADME, organism-based; design: route intravenous; settings: rat, in vivo, iv
# Mycobacterium avium [6] = assay: In vitro antibacterial activity of compound against Mycobacterium avium MAC AN2 wild type strain) isolated from infected patients.; assay type: functional
# Mycobacterium avium [7] = assay: In vitro antibacterial activity of compound against Mycobacterium avium MAC AN3 (wild type strain) isolated from infected patients.; assay type: functional
# Mycobacterium avium [8] = assay: In vitro antibacterial activity of compound against Mycobacterium avium MAC ANI (wild type strain) isolated from infected patients.; assay type: functional
# Mycobacterium avium [9] = assay: In vitro antibacterial activity of compound against Mycobacterium avium MAC ISS-486 (wild type strain) isolated from infected patients.; assay type: functional
# [10] = tested on: Mycobacterium tuberculosis; assay: In vitro antibacterial activity against Mycobacterium tuberculosis MT ATCC H37Rv strain; assay type: functional
# [11] = tested on: Mycobacterium tuberculosis; assay: In vitro antibacterial activity against Mycobacterium tuberculosis MT-1 (wild type strain) isolated from infected patients.; assay type: functional
# [12] = tested on: Mycobacterium tuberculosis; assay: In vitro antibacterial activity against Mycobacterium tuberculosis MT-2 (wild type strain) isolated from infected patients.; assay type: functional
# [13] = Toxicity after intraperitoneal administration in rats and mice; settings: rodentia, in vivo, ip
# Mycobacterium avium [14] = assay: In vitro antibacterial activity of compound against Mycobacterium avium MAC ATCC 15769; assay type: functional
SMILES,clearance [1] [mL/min/kg],Vd [2] [L/kg],half-life [3] [min],MRT [4] [h],AUC [5] [ng·h/mL],MIC (Mycobacterium avium [6]) [µg/mL],MIC (Mycobacterium avium [7]) [µg/mL],MIC (Mycobacterium avium [8]) [µg/mL],MIC (Mycobacterium avium [9]) [µg/mL],MIC [10] [µg/mL],MIC [11] [µg/mL],MIC [12] [µg/mL],LD50 [13] [mg/kg],MIC (Mycobacterium avium [14]) [µg/mL]
OCC/N=C(\S)c1cccnc1S,93.2,4.17,40.2,0.72,3730,8,4,4,8,2,4,8,> 2000,8
CC/N=C(\S)c1cccnc1S,20,0.93,,,15800,8,8,4,4,0.5,1,1,,4
CN1CCN(CCC/N=C(\S)c2cccnc2S)CC1.Cl,,,,,,> 16,> 16,> 16,> 16,8,16,> 16,,> 16
Cl.S/C(=N\CCCN1CCOCC1)c1cccnc1S,,,,,,> 16,> 16,> 16,> 16,4,8,8,,> 16
CN(C)CC/N=C(\S)c1cccnc1S.Cl,60.8,11.2,163,2.83,6910,> 16,> 16,> 16,> 16,8,16,> 16,> 2000,> 16
CCCCCCC/N=C(\S)c1cccnc1S,50,1.28,,,8250,4,4,4,4,0.5,2,2,,2
CC[C@@H](CO)NCCN[C@@H](CC)CO [ETHAMBUTOL],,,,,,0.5,2,1,2,≤ 2,≤ 2,≤ 2,,
Cl.S/C(=N\CCc1ccccn1)c1cccnc1S,144,14.5,133,1.77,4700,8,8,8,8,4,4,1,> 2000,4
Cl.S/C(=N\CCN1CCCC1)c1cccnc1S,,,,,,> 16,> 16,> 16,> 16,8,16,> 16,,> 16
